Data taken from patent publication US20200131129A1, “FARNESOID X RECEPTOR AGONISTS AND USES THEREOF” (Metacrine, Inc., priority 2017, published 2020).
pEC50: −log10 of the molar value.

What follows are compounds tested against T1, hFXR (Homo sapiens, UniProt Q96RI1) (assay: In Vitro FXR Assay (TK): hFXR/hRXR TK-ECRE-luc reporter in transfected CV-1 cells). Settings: CV-1 cells transfected with hFXR, hRXR, 18 hrs incubation, luminescence, maximum efficacy <25% of Fexarmine control also classified as ‘+’.
T1 construct: expressed in transfected cells; host or cells: CV-1 cells
T1 sequence (Q96RI1 1-486): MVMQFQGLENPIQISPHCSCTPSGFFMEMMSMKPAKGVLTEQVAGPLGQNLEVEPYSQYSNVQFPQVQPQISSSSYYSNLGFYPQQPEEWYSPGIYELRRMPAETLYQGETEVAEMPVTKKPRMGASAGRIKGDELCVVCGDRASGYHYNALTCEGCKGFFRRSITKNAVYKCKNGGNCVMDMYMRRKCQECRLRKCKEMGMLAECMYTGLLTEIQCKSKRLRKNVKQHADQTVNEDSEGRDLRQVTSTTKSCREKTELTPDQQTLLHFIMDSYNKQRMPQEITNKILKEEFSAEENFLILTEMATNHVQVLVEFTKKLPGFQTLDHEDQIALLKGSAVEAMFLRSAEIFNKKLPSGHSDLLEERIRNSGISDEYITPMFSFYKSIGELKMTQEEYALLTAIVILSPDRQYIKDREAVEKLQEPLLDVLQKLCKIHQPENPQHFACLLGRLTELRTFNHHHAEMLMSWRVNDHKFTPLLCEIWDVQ
T1 sequence (P19793 1-462 partner): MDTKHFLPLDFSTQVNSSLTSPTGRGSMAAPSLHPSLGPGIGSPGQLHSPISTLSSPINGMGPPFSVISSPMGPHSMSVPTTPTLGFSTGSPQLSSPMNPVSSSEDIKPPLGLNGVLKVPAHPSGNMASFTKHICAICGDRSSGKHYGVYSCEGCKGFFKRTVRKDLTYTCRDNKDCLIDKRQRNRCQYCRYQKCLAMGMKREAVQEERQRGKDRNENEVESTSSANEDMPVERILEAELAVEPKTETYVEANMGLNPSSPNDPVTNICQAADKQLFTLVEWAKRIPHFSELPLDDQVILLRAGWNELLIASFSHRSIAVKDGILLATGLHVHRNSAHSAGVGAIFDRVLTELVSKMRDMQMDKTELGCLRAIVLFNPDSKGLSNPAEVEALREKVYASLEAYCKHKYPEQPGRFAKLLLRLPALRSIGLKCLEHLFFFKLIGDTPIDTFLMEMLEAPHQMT
Assay type: cell-based
Protocol: Example B-1: In Vitro FXR Assay (TK)
CV-1 cells were seeded at a density of 2,000,000 cells in a T175 flask with DMEM+10% charcoal double-stripped FBS and incubated at 37° C. in 5% CO2 for 18 h (O/N).
After 18 h of incubation, the medium in the T175 flask was changed with fresh DMEM+10% charcoal super-stripped serum. In a polypropylene tube, 2500 μL OptiMEM (Life Technologies, Cat #31985-062) was combined with expression plasmids for hFXR, hRXR, TK-ECRE-luc and pCMX-YFP. The tube was then briefly vortexed and incubated at room temperature for 5 minutes. Transfection reagent (X-tremeGENE HP from Roche, Cat #06 366 236 001) was added to the OptiMEM/plasmid mixture vortexed and incubated at room temperature for 20 minutes. Following incubation, the transfection reagent/DNA mixture complex was added to cells in the T175 flask and the cells were incubated at 37° C. in 5% CO2 for 18 h (0/N).
Compounds were serially diluted in DMSO and added to transfected CV-1 cells. The cells were then incubated for 18 hrs. The next day cells were lysed and examined for luminescence.

pEC50 | Structure (SMILES)
≥ 6.30 | COc1ccc([C@H]2CC[C@H](CN(c3cccc(-c4coc(C(C)C)n4)c3)C(=O)[C@H]3CC[C@H](O)CC3)CC2)nc1C#N [Compound 10.20, trans-N-((trans-4-(6-Cyano-5-methoxypyridin-2-yl)cyclohexyl)methyl)-4-hydroxy-N-(3-(2-isopropyloxazol-4-yl)phenyl)cyclohexanecarboxamide]
6.00 to 6.30 | COc1ccc([C@H]2CC[C@H](CN(c3cccc(-n4nnc(C)n4)c3)C(=O)[C@H]3CC[C@H](O)CC3)CC2)cc1C [Compound 9.05, trans-4-Hydroxy-N-((trans-4-(4-methoxy-3-methylphenyl)cyclohexyl)methyl)-N-(3-(5-methyl-2H-tetrazol-2-yl)phenyl)cyclohexanecarboxamide]
≥ 6.30 | CN(C)c1ccc([C@H]2CC[C@H](CN(c3cccc(-c4coc(C5CC5)n4)c3)C(=O)[C@H]3CC[C@H](O)CC3)CC2)cn1 [Compound 10.02, trans-N-(3-(2-Cyclopropyloxazol-4-yl)phenyl)-N-((trans-4-(6-(dimethylamino)pyridine-3-yl)cyclohexyl)methyl)-4-hydroxycyclohexanecarboxamide]
≥ 6.30 | COc1ccc([C@H]2CC[C@H](CN(c3cccc(C#Cc4ccccn4)c3)C(=O)[C@H]3CC[C@H](O)CC3)CC2)cc1C [Compound 11.04, trans-4-Hydroxy-N-((trans-4-(4-methoxy-3-methylphenyl)cyclohexyl)methyl)-N-(3-(pyridine-2-ylethynyl)phenyl)cyclohexanecarboxamide]
≥ 6.30 | COc1ccc([C@H]2CC[C@H](CN(c3cccc(-n4ccc(C)c4)c3)C(=O)[C@H]3CC[C@H](O)CC3)CC2)cc1C [Compound 4]
≥ 6.30 | COc1ccc([C@H]2CC[C@H](CN(c3cccc(-c4ccc(C(C)C)nc4)c3)C(=O)[C@H]3CC[C@H](O)CC3)CC2)cc1C [Compound 2.03, trans-4-Hydroxy-I-(3-(6-isopropylpyridin-3-yl)phenyl)-N-((trans-4-(4-methoxy-3-methylphenyl)cyclohexyl)methyl)cyclohexanecarboxamide]
6.00 to 6.30 | COc1ccc([C@H]2CC[C@H](CN(c3cccc(-n4cnc(C)c4)c3)C(=O)[C@H]3CC[C@H](O)CC3)CC2)cc1C [Compound 9.01, trans-4-Hydroxy-N-((trans-4-(4-methoxy-3-methylphenyl)cyclohexyl)methyl)-N-(3-(4-methyl-1H-imidazol-1-yl)phenyl)cyclohexanecarboxamide]
≥ 6.30 | COc1ccc([C@H]2CC[C@H](CN(c3cccc(-c4coc(C(C)C)n4)c3)C(=O)[C@H]3CC[C@H](O)CC3)CC2)nc1C [Compound 10.05, trans-4-Hydroxy-N-(3-(2-isopropyloxazol-4-yl)phenyl)-N-((trans-4-(5-methoxy-6-methylpyridin-2-yl)cyclohexyl)methyl) cyclohexanecarboxamide]
6.00 to 6.30 | COc1ccc([C@H]2CC[C@H](CN(c3cccc(-c4noc(C)n4)c3)C(=O)[C@H]3CC[C@H](O)CC3)CC2)cc1C [Compound 9.11, trans-4-Hydroxy-N-((trans-4-(4-methoxy-3-methylphenyl)cyclohexyl)methyl)-N-(3-(5-methyl-1,2,4-oxadiazol-3-yl)phenyl)cyclohexanecarboxamide]
≥ 6.30 | COc1ccc([C@H]2CC[C@H](CN(c3cccc(-c4cc(C5CC5)ns4)c3)C(=O)[C@H]3CC[C@H](O)CC3)CC2)nc1C [Compound 10.08, trans-N-(3-(3-Cyclopropylisothiazol-5-yl)phenyl)-4-hydroxy-N-((trans-4-(5-methoxy-6-methylpyridin-2-yl)cyclohexyl)methyl) cyclohexanecarboxamide]
6.00 to 6.30 | Cn1ccc2cc([C@H]3CC[C@H](CN(c4cccc(-c5coc(C6CC6)n5)c4)C(=O)[C@H]4CC[C@H](O)CC4)CC3)ncc21 [Compound 10.21]
≥ 6.30 | COc1ccc(C23CCC(CN(c4cccc(-c5coc(C6CC6)n5)c4)C(=O)[C@H]4CC[C@H](O)CC4)(CC2)CC3)cc1C [Compound 10]
≤ 6.00 | COc1ccc([C@H]2CC[C@H](CN(c3cccc(-c4cnn(C)n4)c3)C(=O)[C@H]3CC[C@H](O)CC3)CC2)cc1C [Compound 2.09, trans-4-Hydroxy-N-((trans-4-(4-methoxy-3-methylphenyl)cyclohexyl)methyl)-N-(3-(2-methyl-2H-1,2,3-triazol-4-yl)phenyl)cyclohexanecarboxamide]
≥ 6.30 | COc1ccc([C@H]2CC[C@H](CN(c3cccc(C#Cc4cn[nH]n4)c3)C(=O)[C@H]3CC[C@H](O)CC3)CC2)cc1C [Compound 14.01, trans-N-(3-((2H-1,2,3-Triazol-4-yl)ethynyl)phenyl)-4-hydroxy-N-((trans-4-(4-methoxy-3-methylphenyl)cyclohexyl)methyl) cyclohexanecarboxamide]
≥ 6.30 | COc1ccc([C@H]2CC[C@H](CN(c3cccc(C#Cc4ncco4)c3)C(=O)[C@H]3CC[C@H](O)CC3)CC2)cc1C [Compound 11.01, trans-4-Hydroxy-N-((trans-4-(4-methoxy-3-methylphenyl)cyclohexyl)methyl)-N-(3-(oxazol-2-ylethynyl)phenyl)cyclohexanecarboxamide]
≥ 6.30 | COc1ccc([C@H]2CC[C@H](CN(c3cccc(-c4ccc(N(C)C)nc4)c3)C(=O)[C@H]3CC[C@H](O)CC3)CC2)cc1C [Compound 1, trans-N-(3-(6-(Dimethylamino)pyridine-3-yl)phenyl)-4-hydroxy-N-((trans-4-(4-methoxy-3-methylphenyl)cyclohexyl)methyl)cyclohexanecarboxamide]
≥ 6.30 | COc1ccc([C@H]2CC[C@H](CN(c3cccc(C#Cc4nnn(C)n4)c3)C(=O)[C@H]3CC[C@H](O)CC3)CC2)cc1C [Compound 11.03, trans-4-Hydroxy-N-((trans-4-(4-methoxy-3-methylphenyl)cyclohexyl)methyl)-N-(3-((2-methyl-2H-tetrazol-5-yl)ethynyl)phenyl) cyclohexanecarboxamide]
≥ 6.30 | COc1ccc(-c2cccc(N(C[C@H]3CC[C@H](c4ccc(OC)c(C)c4)CC3)C(=O)[C@H]3CC[C@H](O)CC3)c2)nc1 [Compound 1.03, trans-4-Hydroxy-N-((trans-4-(4-methoxy-3-methylphenyl)cyclohexyl)methyl)-N-(3-(5-methoxypyridin-2-yl)phenyl)cyclohexanecarboxamide]
6.00 to 6.30 | COc1ccc([C@H]2CC[C@H](CN(c3cccc(-c4nc(C)no4)c3)C(=O)[C@H]3CC[C@H](O)CC3)CC2)cc1C [Compound 9.02, trans-4-Hydroxy-N-((trans-4-(4-methoxy-3-methylphenyl)cyclohexyl)methyl)-N-(3-(3-methyl-1,2,4-oxadiazol-5-yl)phenyl)cyclohexanecarboxamide]
≥ 6.30 | COc1ccc([C@H]2CC[C@H](CN(c3cccc(-c4cnc(N(C)C)cn4)c3)C(=O)[C@H]3CC[C@H](O)CC3)CC2)cc1C [Compound 2]
6.00 to 6.30 | COc1ccc([C@H]2CC[C@H](CN(c3cccc(-c4nc(C)ns4)c3)C(=O)[C@H]3CC[C@H](O)CC3)CC2)cc1C [Compound 2.08, trans-4-Hydroxy-N-((trans-4-(4-methoxy-3-methylphenyl)cyclohexyl)methyl)-N-(3-(3-methyl-1,2,4-thiadiazol-5-yl)phenyl)cyclohexanecarboxamide]
≥ 6.30 | COc1ncc(-c2cccc(N(C[C@H]3CC[C@H](c4ccc(OC)c(C)c4)CC3)C(=O)[C@H]3CC[C@H](O)CC3)c2)cn1 [Compound 1.02, trans-4-Hydroxy-N-((trans-4-(4-methoxy-3-methylphenyl)cyclohexyl)methyl)-N-(3-(2-methoxypyrimidin-5-yl)phenyl)cyclohexanecarboxamide]
≥ 6.30 | COc1ccc([C@H]2CC[C@H](CN(c3cccc(C#Cc4ncns4)c3)C(=O)[C@H]3CC[C@H](O)CC3)CC2)cc1C [Compound 11, trans-N-(3-((1,2,4-Thiadiazol-5-yl)ethynyl)phenyl)-4-hydroxy-N-((trans-4-(4-methoxy-3-methylphenyl)cyclohexyl)methyl)cyclohexanecarboxamide]
